This note sets out measurements from ChEMBL document CHEMBL1201862, “PubChem BioAssay data set” (2004).

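Protocol summary: plate cells (96-well), add compound at 5 concentrations, incubate 48 h, interpolate endpoints linearly. GI50 marks 50% less growth.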 The source made the active and inactive calls. No stated cut-off is given here; in the data, active = GI50 up to about 1.1 µM and inactive = higher.

Test systems include Malme-3M; U-251; SN12C; RPMI-8226; NCI-H460; SNB-19; SK-MEL-5; MDA-N; EKVX; TK-10; CAKI-1; OVCAR-4; OVCAR-3; SK-OV-3; ACHN; HOP-62; NCI-H226; T47D; HT-29.
What all share (assay): NCI anticancer screen, dose series, 48 h

`C=CCNC(=S)N/N=C1\C(=O)N(CN2CCOCC2)c2ccc([N+](=O)[O-])cc21`: the GI50 in the test with Malme-3M was > 100 µM (inactive); in the test on U-251, 18.1 µM (inactive); in the test on SN12C, 16.4 µM (inactive); in the test on RPMI-8226, 33 µM (inactive); in the test with NCI-H460, 4.16 µM (inactive); in the test with SNB-19, 21.6 µM (inactive). For the same molecule, the GI50 was 9.73 µM (inactive) in the test on SK-MEL-5; 30.8 µM (inactive) in the test with MDA-N; 15.4 µM (inactive) with EKVX; 5.36 µM (inactive) with TK-10; 5.19 µM (inactive) in the test with CAKI-1; 22.7 µM (inactive) with OVCAR-4. The GI50 in the test with OVCAR-3 is 24.3 µM (inactive); in the test on SK-OV-3 it was 36.5 µM (inactive); with ACHN, 5.3 µM (inactive); in the test with HOP-62, 20.6 µM (inactive); in the test with NCI-H226, > 100 µM (inactive); in the test on T47D, 17 µM (inactive). Also, the GI50 in the test with HT-29 is 23.2 µM (inactive).

For `CC1=C(C)C(=O)C(C2=C(C3=CC(=O)C(C)=C(C)C3=O)C(=O)c3ccccc3C2=O)=CC1=O`, the GI50 in the test with Malme-3M was 1.12 µM (active); in the test on U-251, 3.62 µM (inactive); with SN12C, 1.85 µM (inactive); with RPMI-8226, 1.3 µM (inactive); with NCI-H460, 14.2 µM (inactive); in the test on SNB-19 it was 11.2 µM (inactive). For the same molecule, the GI50 with SK-MEL-5 is 4.53 µM (inactive); with MDA-N it was 1.91 µM (inactive); in the test on EKVX, 2.12 µM (inactive); in the test with TK-10, 6.35 µM (inactive); with CAKI-1, 2.25 µM (inactive); with OVCAR-4, 1.7 µM (inactive). Besides, the GI50 in the test with OVCAR-3 is 2.68 µM (inactive); in the test on SK-OV-3, 16.5 µM (inactive); in the test with ACHN, 2.31 µM (inactive); in the test on HOP-62 it was 14.7 µM (inactive); with NCI-H226, 6.14 µM (inactive); in the test on T47D, 2.96 µM (inactive). In the test with HT-29, the GI50 is 2.2 µM (inactive).

For `Cn1c(=O)c2[nH]c(C3CC(=O)CC(c4nc5c([nH]4)c(=O)n(C)c(=O)n5C)N3)nc2n(C)c1=O` (stereo unspecified), the GI50 in the test with Malme-3M was > 100 µM (inactive); in the test with U-251, 91 µM (inactive); with SN12C, > 100 µM (inactive); with RPMI-8226, > 100 µM (inactive); in the test with NCI-H460, > 100 µM (inactive); with SNB-19, > 100 µM (inactive). In addition, the GI50 in the test on SK-MEL-5, in the test with MDA-N, in the test on EKVX, with TK-10, in the test on CAKI-1 and in the test with OVCAR-4 was > 100 µM (inactive) each time. The GI50 with OVCAR-3, in the test on SK-OV-3, in the test with ACHN, in the test with HOP-62, in the test on NCI-H226 and in the test with T47D was > 100 µM (inactive) each time. Besides, the GI50 in the test on HT-29 is > 100 µM (inactive).

In the case of `CN(C)c1n/c(=N/Cc2ccccc2)ss1`, the GI50 was > 10 µM (inactive) in the test on Malme-3M; > 10 µM (inactive) with U-251; > 10 µM (inactive) with SN12C; 2.9 µM (inactive) in the test with RPMI-8226; > 10 µM (inactive) in the test on NCI-H460; > 10 µM (inactive) in the test on SNB-19. Further, the GI50 with SK-MEL-5, in the test with MDA-N, with EKVX, with TK-10, in the test on CAKI-1 and in the test with OVCAR-4 was > 10 µM (inactive) throughout. For the same molecule, the GI50 in the test on OVCAR-3, in the test on SK-OV-3, in the test on ACHN, in the test on HOP-62, in the test with NCI-H226 and in the test on T47D was > 10 µM (inactive) in each case. In the test with HT-29, the GI50 was > 10 µM (inactive).
